Results on 8 molecules are retold here after ChEMBL document CHEMBL3414527, “Engineering potent and selective analogues of GpTx-1, a tarantula venom peptide antagonist of the Na(V)1.7 sodium channel” (J Med Chem, 2015).

In assay [1] the target is Sodium channel protein type 5 subunit alpha (Homo sapiens, UniProt Q14524). Description: Inhibition of human NaV1.5 at -140 mV holding potential by whole-cell patch clamp assay. (In general: Patch clamp records ionic current or voltage across a cell membrane.)
Sodium channel protein type 5 subunit alpha, sequence (Q14524 whole entry): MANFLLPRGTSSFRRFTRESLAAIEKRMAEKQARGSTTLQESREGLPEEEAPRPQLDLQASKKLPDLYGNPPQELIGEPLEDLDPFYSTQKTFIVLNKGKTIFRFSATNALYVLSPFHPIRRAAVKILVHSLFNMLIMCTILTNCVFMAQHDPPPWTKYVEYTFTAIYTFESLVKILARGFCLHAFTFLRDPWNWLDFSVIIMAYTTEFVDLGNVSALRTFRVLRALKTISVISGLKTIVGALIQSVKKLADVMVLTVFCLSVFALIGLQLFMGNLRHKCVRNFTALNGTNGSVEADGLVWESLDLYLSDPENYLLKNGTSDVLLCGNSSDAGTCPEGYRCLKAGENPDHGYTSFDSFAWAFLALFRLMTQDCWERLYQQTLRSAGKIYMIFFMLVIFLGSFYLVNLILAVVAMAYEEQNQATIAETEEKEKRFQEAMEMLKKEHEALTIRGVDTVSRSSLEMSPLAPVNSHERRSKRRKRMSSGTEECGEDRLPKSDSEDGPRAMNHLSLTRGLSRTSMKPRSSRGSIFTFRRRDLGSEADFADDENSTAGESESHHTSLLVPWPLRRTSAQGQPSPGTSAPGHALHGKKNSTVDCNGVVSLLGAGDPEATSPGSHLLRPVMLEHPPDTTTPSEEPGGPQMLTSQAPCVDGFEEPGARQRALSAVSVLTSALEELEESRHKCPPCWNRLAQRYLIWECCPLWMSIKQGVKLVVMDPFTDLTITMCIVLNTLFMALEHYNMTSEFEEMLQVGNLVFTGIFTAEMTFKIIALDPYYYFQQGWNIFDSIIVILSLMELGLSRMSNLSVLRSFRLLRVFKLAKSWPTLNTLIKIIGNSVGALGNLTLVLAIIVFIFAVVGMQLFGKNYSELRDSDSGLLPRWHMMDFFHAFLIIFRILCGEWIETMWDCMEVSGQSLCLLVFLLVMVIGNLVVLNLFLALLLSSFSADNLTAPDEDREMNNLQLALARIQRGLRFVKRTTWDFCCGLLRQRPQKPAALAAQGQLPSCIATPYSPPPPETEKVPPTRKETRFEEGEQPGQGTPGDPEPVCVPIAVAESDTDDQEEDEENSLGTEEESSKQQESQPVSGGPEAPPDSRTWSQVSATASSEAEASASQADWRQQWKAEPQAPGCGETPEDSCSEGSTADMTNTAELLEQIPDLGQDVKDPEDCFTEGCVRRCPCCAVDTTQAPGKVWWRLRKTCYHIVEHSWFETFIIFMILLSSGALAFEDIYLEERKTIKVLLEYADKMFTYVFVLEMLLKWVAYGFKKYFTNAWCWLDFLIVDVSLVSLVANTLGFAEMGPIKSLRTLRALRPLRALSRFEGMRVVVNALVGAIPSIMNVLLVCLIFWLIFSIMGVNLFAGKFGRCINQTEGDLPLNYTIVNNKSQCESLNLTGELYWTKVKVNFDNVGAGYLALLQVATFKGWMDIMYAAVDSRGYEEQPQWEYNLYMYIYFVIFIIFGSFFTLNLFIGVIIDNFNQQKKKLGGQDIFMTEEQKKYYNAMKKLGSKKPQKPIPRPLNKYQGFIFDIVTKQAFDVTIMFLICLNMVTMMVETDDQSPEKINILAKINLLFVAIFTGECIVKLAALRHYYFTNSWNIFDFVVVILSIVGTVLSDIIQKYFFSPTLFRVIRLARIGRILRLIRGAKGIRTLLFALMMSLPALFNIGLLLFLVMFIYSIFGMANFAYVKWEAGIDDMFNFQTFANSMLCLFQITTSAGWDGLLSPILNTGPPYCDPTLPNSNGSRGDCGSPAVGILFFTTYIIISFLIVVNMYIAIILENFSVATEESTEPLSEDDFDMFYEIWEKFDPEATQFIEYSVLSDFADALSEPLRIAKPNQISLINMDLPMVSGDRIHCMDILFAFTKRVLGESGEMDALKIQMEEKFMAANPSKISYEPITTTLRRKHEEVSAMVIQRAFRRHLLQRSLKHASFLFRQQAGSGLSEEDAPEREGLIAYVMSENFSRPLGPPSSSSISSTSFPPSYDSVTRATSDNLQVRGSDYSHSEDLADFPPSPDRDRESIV
In assay [2] the target is Sodium channel protein type 9 subunit alpha (Homo sapiens, UniProt Q15858). Put plainly: Inhibition of human NaV1.7 at -140 mV holding potential by whole-cell patch clamp assay.
Sodium channel protein type 9 subunit alpha, sequence (Q15858 whole entry): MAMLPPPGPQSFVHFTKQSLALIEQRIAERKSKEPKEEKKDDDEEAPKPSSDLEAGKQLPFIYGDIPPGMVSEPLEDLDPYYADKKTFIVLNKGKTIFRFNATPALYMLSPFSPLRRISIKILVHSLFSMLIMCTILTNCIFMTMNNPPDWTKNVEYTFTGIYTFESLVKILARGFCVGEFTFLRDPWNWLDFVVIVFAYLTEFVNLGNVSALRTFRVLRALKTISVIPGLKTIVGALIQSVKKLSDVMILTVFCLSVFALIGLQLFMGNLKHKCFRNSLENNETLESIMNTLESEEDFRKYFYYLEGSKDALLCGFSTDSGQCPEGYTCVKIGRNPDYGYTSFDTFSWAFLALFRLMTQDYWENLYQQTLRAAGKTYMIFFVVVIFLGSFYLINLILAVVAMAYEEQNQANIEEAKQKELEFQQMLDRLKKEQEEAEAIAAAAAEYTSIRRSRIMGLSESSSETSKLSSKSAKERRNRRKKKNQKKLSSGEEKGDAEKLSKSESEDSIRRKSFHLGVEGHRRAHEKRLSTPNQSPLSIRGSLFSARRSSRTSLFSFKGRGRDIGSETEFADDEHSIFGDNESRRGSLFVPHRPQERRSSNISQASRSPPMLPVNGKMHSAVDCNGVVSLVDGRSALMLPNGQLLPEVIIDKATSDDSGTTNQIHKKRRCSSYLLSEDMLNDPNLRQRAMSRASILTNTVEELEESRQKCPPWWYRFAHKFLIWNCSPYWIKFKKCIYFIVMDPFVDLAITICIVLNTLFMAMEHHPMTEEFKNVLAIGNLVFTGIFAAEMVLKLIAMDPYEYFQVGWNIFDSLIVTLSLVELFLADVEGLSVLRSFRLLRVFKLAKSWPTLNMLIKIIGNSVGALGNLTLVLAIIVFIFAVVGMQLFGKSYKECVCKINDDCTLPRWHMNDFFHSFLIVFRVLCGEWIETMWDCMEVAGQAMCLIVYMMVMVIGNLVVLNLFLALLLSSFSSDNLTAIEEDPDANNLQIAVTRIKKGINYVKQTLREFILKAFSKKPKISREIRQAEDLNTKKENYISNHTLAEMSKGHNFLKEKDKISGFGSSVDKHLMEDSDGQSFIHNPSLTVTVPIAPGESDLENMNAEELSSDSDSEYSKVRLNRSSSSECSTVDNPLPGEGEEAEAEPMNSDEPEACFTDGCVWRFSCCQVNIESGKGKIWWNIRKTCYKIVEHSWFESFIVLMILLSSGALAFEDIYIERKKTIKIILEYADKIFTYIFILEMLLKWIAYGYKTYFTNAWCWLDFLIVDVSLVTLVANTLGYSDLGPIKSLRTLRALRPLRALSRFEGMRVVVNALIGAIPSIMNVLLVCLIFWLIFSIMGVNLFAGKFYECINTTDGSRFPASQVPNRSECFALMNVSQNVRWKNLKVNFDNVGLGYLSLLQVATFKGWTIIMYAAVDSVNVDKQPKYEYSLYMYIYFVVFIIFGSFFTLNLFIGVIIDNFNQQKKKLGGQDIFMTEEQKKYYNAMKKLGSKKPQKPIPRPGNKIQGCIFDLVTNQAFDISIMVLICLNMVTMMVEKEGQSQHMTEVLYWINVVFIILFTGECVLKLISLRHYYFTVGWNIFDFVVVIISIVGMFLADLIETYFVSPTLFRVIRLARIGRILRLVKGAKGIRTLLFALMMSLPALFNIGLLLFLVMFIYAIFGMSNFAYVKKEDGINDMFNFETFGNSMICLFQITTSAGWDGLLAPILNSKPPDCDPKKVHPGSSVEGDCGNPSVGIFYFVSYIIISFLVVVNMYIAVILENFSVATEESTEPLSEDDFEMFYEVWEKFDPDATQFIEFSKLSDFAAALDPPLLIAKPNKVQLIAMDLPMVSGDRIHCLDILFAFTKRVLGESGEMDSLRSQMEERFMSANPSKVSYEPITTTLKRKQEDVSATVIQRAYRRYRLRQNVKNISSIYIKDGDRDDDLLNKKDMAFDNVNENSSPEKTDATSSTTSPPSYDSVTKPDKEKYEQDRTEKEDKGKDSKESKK

For orientation: IC50 means the concentration that gives 50% inhibition. The low end stands for higher potency, the high end for lower potency.

Bridge positions count the residues as written; N and C are the ends. Peptide text beside a SMILES is read from it.

Turning to `CC[C@H](C)[C@@H]1NC(=O)[C@@H]2CSSC[C@@H]3NC(=O)[C@H](C(C)C)NC(=O)[C@H](CC(C)C)NC(=O)[C@H](CC(N)=O)NC(=O)[C@@H]4CCCN4C(=O)[C@H](CCCNC(=N)N)NC(=O)[C@H](CSSC[C@H](NC(=O)[C@@H](N)CC(=O)O)C(=O)N[C@@H](CC(C)C)C(=O)NCC(=O)N[C@@H](Cc4ccccc4)C(=O)N[C@@H](CCSC)C(=O)N[C@@H](CCCNC(=N)N)C(=O)N[C@@H](CCCCN)C(=O)N2)NC(=O)[C@H](CSSC[C@@H](C(=O)N[C@@H](CCCCN)C(=O)N[C@@H](Cc2ccc(O)cc2)C(=O)N[C@H](C(=O)N[C@@H](Cc2ccccc2)C(N)=O)C(C)C)NC(=O)[C@H](C)NC(=O)[C@H](CCCCN)NC(=O)[C@H](Cc2cnc[nH]2)NC(=O)[C@H]([C@@H](C)O)NC(=O)[C@H](CCCNC(=N)N)NC(=O)[C@H](CO)NC3=O)NC(=O)[C@H](CCCCN)NC(=O)[C@H](CC(=O)O)NC(=O)[C@H](CC(N)=O)NC(=O)[C@H](CC(=O)O)NC(=O)[C@@H]2CCCN2C1=O` (H-DCLGFMRKCIPDNDKCCRPNLVCSRTHKACKYVF-NH2; disulfide 2-17, 9-23, 16-30), the IC50 in assay [1] is above 5 µM; in assay [2], above 5000 nM.

As to `CC[C@H](C)[C@@H]1NC(=O)[C@@H]2CSSC[C@@H]3NC(=O)[C@H](C(C)C)NC(=O)[C@H](CC(C)C)NC(=O)[C@H](CC(N)=O)NC(=O)[C@@H]4CCCN4C(=O)[C@H](CCCNC(=N)N)NC(=O)[C@H](CSSC[C@H](NC(=O)[C@@H](N)CC(=O)O)C(=O)N[C@@H](CC(C)C)C(=O)NCC(=O)N[C@@H](Cc4ccccc4)C(=O)N[C@@H](CCSC)C(=O)N[C@@H](CCCNC(=N)N)C(=O)N[C@@H](CCCCN)C(=O)N2)NC(=O)[C@H](CSSC[C@@H](C(=O)N[C@@H](CCCCN)C(=O)N[C@@H](Cc2ccc(O)cc2)C(=O)N[C@H](C(=O)N[C@@H](Cc2ccccc2)C(N)=O)C(C)C)NC(=O)[C@H](Cc2c[nH]c4ccccc24)NC(=O)[C@H](C)NC(=O)[C@H](Cc2cnc[nH]2)NC(=O)[C@H]([C@@H](C)O)NC(=O)[C@H](CCCNC(=N)N)NC(=O)[C@H](CO)NC3=O)NC(=O)[C@H](CCCCN)NC(=O)[C@H](CC(=O)O)NC(=O)[C@H](CC(N)=O)NC(=O)[C@H](CC(=O)O)NC(=O)[C@@H]2CCCN2C1=O` (H-DCLGFMRKCIPDNDKCCRPNLVCSRTHAWCKYVF-NH2; disulfide 2-17, 9-23, 16-30), the figures for the IC50 in assay [1] and in assay [2] were above 5 µM and 470 nM, respectively.

As to `CC[C@H](C)[C@@H]1NC(=O)[C@@H]2CSSC[C@@H]3NC(=O)[C@H](C(C)C)NC(=O)[C@H](CC(C)C)NC(=O)[C@H](CC(N)=O)NC(=O)[C@@H]4CCCN4C(=O)[C@H](CCCNC(=N)N)NC(=O)[C@H](CSSC[C@H](NC(=O)[C@@H](N)CC(=O)O)C(=O)N[C@@H](CC(C)C)C(=O)NCC(=O)N[C@@H](Cc4ccccc4)C(=O)N[C@@H](CCSC)C(=O)N[C@@H](CCCNC(=N)N)C(=O)N[C@@H](CCCCN)C(=O)N2)NC(=O)[C@H](CSSC[C@@H](C(=O)N[C@@H](CCCCN)C(=O)N[C@@H](Cc2ccc(O)cc2)C(=O)N[C@H](C(=O)N[C@@H](Cc2ccccc2)C(N)=O)C(C)C)NC(=O)[C@H](Cc2c[nH]c4ccccc24)NC(=O)[C@H](CCCCN)NC(=O)[C@H](C)NC(=O)[C@H]([C@@H](C)O)NC(=O)[C@H](CCCNC(=N)N)NC(=O)[C@H](CO)NC3=O)NC(=O)[C@H](CCCCN)NC(=O)[C@H](CC(=O)O)NC(=O)[C@H](CC(N)=O)NC(=O)[C@H](CC(=O)O)NC(=O)[C@@H]2CCCN2C1=O` (H-DCLGFMRKCIPDNDKCCRPNLVCSRTAKWCKYVF-NH2; disulfide 2-17, 9-23, 16-30), the IC50 in assay [1] is above 5 µM; in assay [2] it was 970 nM.

Turning to `CC[C@H](C)[C@@H]1NC(=O)CNC(=O)[C@H](CC(C)C)NC(=O)[C@@H](NC(=O)[C@@H](N)CC(=O)O)CSSC[C@@H]2NC(=O)[C@@H]3CSSC[C@@H](C(=O)N[C@@H](CCCCN)C(=O)N[C@@H](Cc4ccc(O)cc4)C(=O)N[C@H](C(=O)N[C@@H](Cc4ccccc4)C(N)=O)C(C)C)NC(=O)[C@H](Cc4c[nH]c5ccccc45)NC(=O)[C@H](CCCCN)NC(=O)[C@H](Cc4cnc[nH]4)NC(=O)[C@H]([C@@H](C)O)NC(=O)[C@H](CCCNC(=N)N)NC(=O)[C@H](CO)NC(=O)[C@H](CSSC[C@H](NC(=O)[C@H](CCCCN)NC(=O)[C@H](CCCNC(=N)N)NC(=O)[C@H](CCSC)NC1=O)C(=O)N[C@@H]([C@@H](C)CC)C(=O)N1CCC[C@H]1C(=O)N[C@@H](CC(=O)O)C(=O)N[C@@H](CC(N)=O)C(=O)N[C@@H](CC(=O)O)C(=O)N[C@@H](CCCCN)C(=O)N3)NC(=O)[C@H](C(C)C)NC(=O)[C@H](CC(C)C)NC(=O)[C@H](CC(N)=O)NC(=O)[C@@H]1CCCN1C(=O)[C@H](CCCNC(=N)N)NC2=O` (H-DCLGIMRKCIPDNDKCCRPNLVCSRTHKWCKYVF-NH2; disulfide 2-17, 9-23, 16-30), the figures for the IC50 in assay [1] and in assay [2] were above 10 µM and 9 nM, respectively.

For `CC[C@H](C)[C@@H]1NC(=O)[C@@H]2CSSC[C@@H]3NC(=O)[C@H](C(C)C)NC(=O)[C@H](CC(C)C)NC(=O)[C@H](CC(N)=O)NC(=O)[C@@H]4CCCN4C(=O)[C@H](CCCNC(=N)N)NC(=O)[C@H](CSSC[C@H](NC(=O)[C@@H](N)CC(=O)O)C(=O)N[C@@H](CC(C)C)C(=O)NCC(=O)N[C@@H](Cc4ccccc4)C(=O)N[C@@H](CCSC)C(=O)N[C@@H](CCCNC(=N)N)C(=O)N[C@@H](CCCCN)C(=O)N2)NC(=O)[C@H](CSSC[C@@H](C(=O)N[C@@H](CCCCN)C(=O)N[C@@H](Cc2ccc(O)cc2)C(=O)N[C@H](C(=O)N[C@@H](Cc2ccccc2)C(N)=O)C(C)C)NC(=O)[C@H](Cc2c[nH]c4ccccc24)NC(=O)[C@H](CCCCN)NC(=O)[C@H](Cc2cnc[nH]2)NC(=O)[C@H]([C@@H](C)O)NC(=O)[C@H](C)NC(=O)[C@H](CO)NC3=O)NC(=O)[C@H](CCCCN)NC(=O)[C@H](CC(=O)O)NC(=O)[C@H](CC(N)=O)NC(=O)[C@H](CC(=O)O)NC(=O)[C@@H]2CCCN2C1=O` (H-DCLGFMRKCIPDNDKCCRPNLVCSATHKWCKYVF-NH2; disulfide 2-17, 9-23, 16-30), the IC50 in assay [1] was above 5 µM; in assay [2], 330 nM.

For `CC[C@H](C)[C@@H]1NC(=O)[C@@H]2CSSC[C@@H]3NC(=O)[C@H](C(C)C)NC(=O)[C@H](CC(C)C)NC(=O)[C@H](CC(N)=O)NC(=O)[C@@H]4CCCN4C(=O)[C@H](CCCNC(=N)N)NC(=O)[C@H](CSSC[C@H](NC(=O)[C@@H](N)CC(=O)O)C(=O)N[C@@H](CC(C)C)C(=O)NCC(=O)N[C@@H](C(C)C)C(=O)N[C@@H](CCSC)C(=O)N[C@@H](CCCNC(=N)N)C(=O)N[C@@H](CCCCN)C(=O)N2)NC(=O)[C@H](CSSC[C@@H](C(=O)N[C@@H](CCCCN)C(=O)N[C@@H](Cc2ccc(O)cc2)C(=O)N[C@H](C(=O)N[C@@H](Cc2ccccc2)C(N)=O)C(C)C)NC(=O)[C@H](Cc2c[nH]c4ccccc24)NC(=O)[C@H](CCCCN)NC(=O)[C@H](Cc2cnc[nH]2)NC(=O)[C@H]([C@@H](C)O)NC(=O)[C@H](CCCNC(=N)N)NC(=O)[C@H](CO)NC3=O)NC(=O)[C@H](CCCCN)NC(=O)[C@H](CC(=O)O)NC(=O)[C@H](CC(N)=O)NC(=O)[C@H](CC(=O)O)NC(=O)[C@@H]2CCCN2C1=O` (H-DCLGVMRKCIPDNDKCCRPNLVCSRTHKWCKYVF-NH2; disulfide 2-17, 9-23, 16-30), the results for the half-inhibitory concentration (IC50) in assay [1] and in assay [2] were above 10 µM and 19 nM, respectively.

Take `CC[C@H](C)[C@@H]1NC(=O)[C@@H]2CSSC[C@@H]3NC(=O)[C@H](C(C)C)NC(=O)[C@H](CC(C)C)NC(=O)[C@H](CC(N)=O)NC(=O)[C@@H]4CCCN4C(=O)[C@H](CCCNC(=N)N)NC(=O)[C@H](CSSC[C@H](NC(=O)[C@@H](N)CC(=O)O)C(=O)N[C@@H](CC(C)C)C(=O)NCC(=O)N[C@@H](Cc4ccccc4)C(=O)N[C@@H](CCSC)C(=O)N[C@@H](CCCNC(=N)N)C(=O)N[C@@H](CCCCN)C(=O)N2)NC(=O)[C@H](CSSC[C@@H](C(=O)N[C@@H](CCCCN)C(=O)N[C@@H](Cc2ccc(O)cc2)C(=O)N[C@H](C(=O)N[C@@H](Cc2ccccc2)C(N)=O)C(C)C)NC(=O)[C@H](Cc2c[nH]c4ccccc24)NC(=O)[C@H](CCCCN)NC(=O)[C@H](Cc2cnc[nH]2)NC(=O)[C@H](CCC(=O)O)NC(=O)[C@H](CCCNC(=N)N)NC(=O)[C@H](CO)NC3=O)NC(=O)[C@H](CCCCN)NC(=O)[C@H](CC(=O)O)NC(=O)[C@H](CC(N)=O)NC(=O)[C@H](CC(=O)O)NC(=O)[C@@H]2CCCN2C1=O` (H-DCLGFMRKCIPDNDKCCRPNLVCSREHKWCKYVF-NH2; disulfide 2-17, 9-23, 16-30): the IC50 in assay [1] was above 10 µM; in assay [2], 34 nM.

For the molecule `CC[C@H](C)[C@@H]1NC(=O)[C@@H]2CSSC[C@@H]3NC(=O)[C@H](C(C)C)NC(=O)[C@H](CC(C)C)NC(=O)[C@H](CC(N)=O)NC(=O)[C@@H]4CCCN4C(=O)[C@H](CCCNC(=N)N)NC(=O)[C@H](CSSC[C@H](NC(=O)[C@@H](N)CC(=O)O)C(=O)N[C@@H](CC(C)C)C(=O)NCC(=O)N[C@@H](Cc4ccc(I)cc4)C(=O)N[C@@H](CCSC)C(=O)N[C@@H](CCCNC(=N)N)C(=O)N[C@@H](CCCCN)C(=O)N2)NC(=O)[C@H](CSSC[C@@H](C(=O)N[C@@H](CCCCN)C(=O)N[C@@H](Cc2ccc(O)cc2)C(=O)N[C@H](C(=O)N[C@@H](Cc2ccccc2)C(N)=O)C(C)C)NC(=O)[C@H](Cc2c[nH]c4ccccc24)NC(=O)[C@H](CCCCN)NC(=O)[C@H](Cc2cnc[nH]2)NC(=O)[C@H]([C@@H](C)O)NC(=O)[C@H](CCCNC(=N)N)NC(=O)[C@H](CO)NC3=O)NC(=O)[C@H](CCCCN)NC(=O)[C@H](CC(=O)O)NC(=O)[C@H](CC(N)=O)NC(=O)[C@H](CC(=O)O)NC(=O)[C@@H]2CCCN2C1=O`, the half-inhibitory concentration (IC50) in assay [1] was above 10 µM; in assay [2], 236 nM.
